This is an account of results in US7045532B2 (Millennium Pharmaceuticals, Inc., priority 1999, dated 2006).

Like-named read-outs stand apart in the source and are kept apart here. A value given as a limit tells only on which side of the number the result lay.

The target in assay [1] is ACE-2 (Rattus norvegicus, UniProt Q5EGZ1). Kind of assay: ACE-2 Competitive Substrate Assay, rat ACE-2. Conditions: Ki class, compounds tested in 5% DMSO. Format: biochemical.
The next assay has as its target T1, Carboxypeptidase A (Bos taurus, UniProt P00730).
T1 sequence (P00730 111-419): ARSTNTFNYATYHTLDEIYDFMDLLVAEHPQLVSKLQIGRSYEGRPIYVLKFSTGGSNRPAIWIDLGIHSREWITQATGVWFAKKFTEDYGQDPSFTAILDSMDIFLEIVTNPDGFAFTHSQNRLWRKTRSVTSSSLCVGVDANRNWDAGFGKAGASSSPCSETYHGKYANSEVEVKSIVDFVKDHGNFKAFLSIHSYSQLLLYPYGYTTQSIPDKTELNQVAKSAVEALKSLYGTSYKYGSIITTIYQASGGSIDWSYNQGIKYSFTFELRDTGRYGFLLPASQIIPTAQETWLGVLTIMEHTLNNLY
In words: Carboxypeptidase A activity assay. Format: biochemical. Conditions: Ki class, compounds tested in 5% DMSO. In a few lines:
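Ki obtained by correcting apparent Ki for substrate, Ki=Kiapp/(1+[S]/Km), from 12-concentration series. Enzyme activity read by absorbance at 328 nm with 5% DMSO present, EDTA stop.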

The target of the next assay is T2, ACE (Sigma, A2580) (Sus scrofa, UniProt F1RRW5).
T2 construct: ACE from porcine kidney; purchased Sigma A2580; host or cells: porcine kidney
T2 sequence (F1RRW5 34-1309): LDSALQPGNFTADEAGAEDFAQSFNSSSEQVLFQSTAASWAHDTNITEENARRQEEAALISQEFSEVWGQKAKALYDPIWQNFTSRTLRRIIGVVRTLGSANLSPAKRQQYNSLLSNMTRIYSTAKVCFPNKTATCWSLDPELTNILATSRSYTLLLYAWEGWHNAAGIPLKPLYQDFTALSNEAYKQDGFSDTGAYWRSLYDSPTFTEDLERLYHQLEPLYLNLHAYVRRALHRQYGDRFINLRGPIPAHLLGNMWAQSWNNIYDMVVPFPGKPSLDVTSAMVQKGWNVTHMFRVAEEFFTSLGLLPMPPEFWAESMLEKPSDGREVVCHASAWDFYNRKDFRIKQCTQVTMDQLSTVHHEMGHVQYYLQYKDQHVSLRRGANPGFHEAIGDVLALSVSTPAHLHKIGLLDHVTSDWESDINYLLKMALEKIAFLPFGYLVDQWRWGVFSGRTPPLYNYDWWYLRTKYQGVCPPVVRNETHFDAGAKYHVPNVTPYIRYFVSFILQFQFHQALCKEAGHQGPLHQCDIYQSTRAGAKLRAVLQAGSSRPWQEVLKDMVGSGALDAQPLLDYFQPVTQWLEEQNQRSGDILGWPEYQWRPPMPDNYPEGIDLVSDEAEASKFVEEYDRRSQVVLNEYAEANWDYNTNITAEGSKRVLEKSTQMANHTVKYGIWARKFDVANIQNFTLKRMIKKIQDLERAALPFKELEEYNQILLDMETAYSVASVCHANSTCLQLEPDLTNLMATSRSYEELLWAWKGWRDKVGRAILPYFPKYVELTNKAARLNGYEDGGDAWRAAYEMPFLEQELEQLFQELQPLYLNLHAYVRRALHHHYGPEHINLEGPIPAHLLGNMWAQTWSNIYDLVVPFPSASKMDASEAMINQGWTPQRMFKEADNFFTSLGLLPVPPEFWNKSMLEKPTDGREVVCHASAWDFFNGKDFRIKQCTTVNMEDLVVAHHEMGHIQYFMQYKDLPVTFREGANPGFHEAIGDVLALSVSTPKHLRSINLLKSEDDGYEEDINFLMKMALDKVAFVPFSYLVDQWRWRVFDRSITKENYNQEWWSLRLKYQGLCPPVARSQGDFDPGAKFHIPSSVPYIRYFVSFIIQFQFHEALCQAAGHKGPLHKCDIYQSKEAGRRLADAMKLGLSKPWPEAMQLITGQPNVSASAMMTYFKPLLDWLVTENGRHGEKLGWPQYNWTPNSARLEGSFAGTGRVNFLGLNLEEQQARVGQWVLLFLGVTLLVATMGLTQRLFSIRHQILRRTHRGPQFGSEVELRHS
In words: ACE enzymatic activity assay. Format: biochemical, porcine. Conditions: Ki class, compounds tested in 5% DMSO. In a few lines: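 Fluorogenic substrate cleavage by 1 nM ACE, read at 320/405 nm after EDTA stop at ~30 min. Reactions at 25 °C, pH 7.5, in HEPES/NaCl/Brij-35 buffer; compounds tested at 12 concentrations in 5% DMSO.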

The target of assay [2] is T3, ACE-2 (Homo sapiens, UniProt Q9BYF1).
T3 construct: a stop codon inserted after the serine immediately preceding the transmembrane domain; made in house; host or cells: CHO K1 cells (transient transfection, purified from conditioned medium)
T3 sequence (Q9BYF1 18-740 limits assumed): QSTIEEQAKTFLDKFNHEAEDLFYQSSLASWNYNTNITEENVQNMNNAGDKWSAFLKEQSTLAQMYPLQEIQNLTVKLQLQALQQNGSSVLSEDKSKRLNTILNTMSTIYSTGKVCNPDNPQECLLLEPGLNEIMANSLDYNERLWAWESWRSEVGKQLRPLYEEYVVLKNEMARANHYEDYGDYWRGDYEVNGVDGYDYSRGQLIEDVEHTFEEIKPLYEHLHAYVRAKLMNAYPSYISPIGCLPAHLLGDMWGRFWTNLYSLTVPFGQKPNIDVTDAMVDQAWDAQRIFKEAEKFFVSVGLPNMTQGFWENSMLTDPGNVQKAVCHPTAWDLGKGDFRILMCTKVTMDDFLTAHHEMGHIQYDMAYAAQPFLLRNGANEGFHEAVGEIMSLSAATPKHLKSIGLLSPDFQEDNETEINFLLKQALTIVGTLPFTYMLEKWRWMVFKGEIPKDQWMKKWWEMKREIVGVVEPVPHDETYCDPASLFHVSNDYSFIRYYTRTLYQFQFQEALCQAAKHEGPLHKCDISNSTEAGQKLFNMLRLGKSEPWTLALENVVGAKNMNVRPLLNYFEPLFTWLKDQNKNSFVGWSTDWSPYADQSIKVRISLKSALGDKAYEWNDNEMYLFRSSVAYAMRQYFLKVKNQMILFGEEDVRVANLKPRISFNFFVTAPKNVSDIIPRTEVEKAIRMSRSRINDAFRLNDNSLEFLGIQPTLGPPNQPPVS
In words: ACE-2 Competitive Substrate Assay (ACS Assay). It is filed as biochemical.

Setting [3] is: Ki class, compounds tested in 5% DMSO, 12 compound concentrations, Ki=Kiapp/(1+[S]/Km), read-out: Human ACE-2 Activity.
Where [4] appears, read: Table 3, very good ACE-2 inhibiting compounds, species not given, read-out: ACE-2 Activity, Ki.
The mark [5] stands for this setting: Ki class, compounds tested in 5% DMSO, 12 concentrations, read-out: Human ACE-2 Activity.

Chain of ACE-2 (Rattus norvegicus, UniProt Q5EGZ1) (Q5EGZ1 18-805): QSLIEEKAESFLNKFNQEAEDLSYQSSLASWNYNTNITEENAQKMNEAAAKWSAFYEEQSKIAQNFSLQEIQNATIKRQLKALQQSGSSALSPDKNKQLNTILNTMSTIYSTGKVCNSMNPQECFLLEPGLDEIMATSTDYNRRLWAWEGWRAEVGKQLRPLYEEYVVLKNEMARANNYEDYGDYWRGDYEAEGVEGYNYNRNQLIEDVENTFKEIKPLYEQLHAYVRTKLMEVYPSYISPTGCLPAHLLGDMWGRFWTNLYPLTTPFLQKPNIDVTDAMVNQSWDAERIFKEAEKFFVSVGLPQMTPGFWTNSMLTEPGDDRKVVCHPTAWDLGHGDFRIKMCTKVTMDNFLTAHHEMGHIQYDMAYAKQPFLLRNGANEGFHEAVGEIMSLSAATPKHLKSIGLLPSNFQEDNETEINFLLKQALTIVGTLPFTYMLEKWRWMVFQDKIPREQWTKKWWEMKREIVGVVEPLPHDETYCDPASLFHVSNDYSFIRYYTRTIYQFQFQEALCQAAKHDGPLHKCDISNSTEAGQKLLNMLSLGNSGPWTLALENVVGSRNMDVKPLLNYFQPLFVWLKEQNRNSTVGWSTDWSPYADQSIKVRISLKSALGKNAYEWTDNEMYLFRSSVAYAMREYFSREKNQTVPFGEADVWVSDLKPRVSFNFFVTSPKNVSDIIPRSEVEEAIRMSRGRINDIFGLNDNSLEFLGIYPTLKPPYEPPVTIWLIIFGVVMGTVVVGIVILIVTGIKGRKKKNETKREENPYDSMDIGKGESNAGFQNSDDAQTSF

As to `Cc1ccc(Cn2cncc2C[C@H](NC(CC(C)C)C(=O)O)C(=O)O)cc1` (single isomer, unassigned) [HG, 2-[1-Carboxy-2-[3-(4-methyl-benzyl)-3H-imidazol-4-yl]-ethylamino)4-methyl-pentanoic acid], the Ki on ACE-2 [1] (12 compound concentrations) is under 100 nM; at Carboxypeptidase A (12 compound concentrations) it was 10 to 50 µM; at ACE (Sigma, A2580) (12 compound concentrations) it was 10 to 50 µM; on ACE-2 [2] (setting [3]) it was under 100 nM; at ACE-2 [2] (setting [4]) it was under 50 nM.

Consider `Cc1ccc(Cn2cncc2C[C@H](NC(CC(C)C)C(=O)O)C(=O)O)cc1C` (single isomer, unassigned) [HK, 2-[1-Carboxy-2-[3-(3,4-dimethyl-benzyl)-3H-imidazol-4-yl]-ethylamino)4-methyl-pentanoic acid], for which the Ki at ACE-2 [1] (12 compound concentrations) was under 100 nM; at Carboxypeptidase A (12 compound concentrations), 10 to 50 µM; at ACE (Sigma, A2580) (12 compound concentrations), 10 to 50 µM; on ACE-2 [2] (setting [3]), under 100 nM; at ACE-2 [2] (setting [4]) it was under 50 nM.

As for `Cc1cccc(Cn2cncc2C[C@H](NC(CC(C)C)C(=O)O)C(=O)O)c1` (single isomer, unassigned) [HO, 2-[1-Carboxy-2-[3-(3-methyl-benzyl)-3H-imidazol-4-yl]-ethylamino]4-methyl-pentanoic acid], the Ki at ACE-2 [1] (12 compound concentrations) is under 100 nM; at Carboxypeptidase A (12 compound concentrations), 10 to 50 µM; on ACE (Sigma, A2580) (12 compound concentrations), 10 to 50 µM; on ACE-2 [2] (setting [3]), under 100 nM; at ACE-2 [2] (setting [4]), under 50 nM.

Regarding `Cc1cc(C)cc(Cn2cncc2C[C@H](NC(CC(C)C)C(=O)O)C(=O)O)c1` (single isomer, unassigned) [HQ, 2-[1-Carboxy-2-[3-(3,5-dimethyl-benzyl)-3H-imidazol-4-yl]-ethylamino]4-methyl-pantanoic acid], the Ki on ACE-2 [1] (12 compound concentrations) was under 100 nM; at Carboxypeptidase A (12 compound concentrations), 10 to 50 µM; on ACE (Sigma, A2580) (12 compound concentrations) it was 10 to 50 µM; at ACE-2 [2] (setting [3]) it was under 100 nM; at ACE-2 [2] (setting [4]) it was under 50 nM.

With `CC(C)CC(N[C@@H](Cc1cncn1Cc1ccc(OC(F)(F)F)cc1)C(=O)O)C(=O)O` (single isomer, unassigned) [HS, 2-[1-Carboxy-2-[3-(4-trifluoromethoxy-benzyl)-3H-imidazol-4-yl]-ethylamino]-4-methyl-pentanoic acid], the Ki is 100 to 500 nM on ACE-2 [1] (12 compound concentrations); 10 to 50 µM at Carboxypeptidase A (12 compound concentrations); 10 to 50 µM at ACE (Sigma, A2580) (12 compound concentrations); under 100 nM at ACE-2 [2] (setting [3]); 50 to 100 nM on ACE-2 [2] (setting [4]).

Take `CC(C)CC(N[C@@H](Cc1cncn1Cc1ccc(C(C)C)cc1)C(=O)O)C(=O)O` (single isomer, unassigned) [HU, 2-[1-Carboxy-2-[3-(4-isopropyl-benzyl)-3H-imidazol-4-yl]-ethylamino)4-methyl-pentanoic acid]: the Ki on ACE-2 [1] (12 compound concentrations) was 100 to 500 nM; at Carboxypeptidase A (12 compound concentrations) it was under 10 µM; on ACE (Sigma, A2580) (12 compound concentrations), under 10 µM; at ACE-2 [2] (setting [3]), under 100 nM; at ACE-2 [2] (setting [4]), 50 to 100 nM.

With `CC(C)C[C@@H](C(=O)O)N(C(=O)c1ccccc1)C(CCc1ccccc1)C(=O)O` (stereo in doubt) [AV, 2-[Benzoyl-(1-carboxy-3-phenyl-propyl)-amino]-4-methyl-pentanoic acid], the Ki at ACE-2 [1] (12 concentrations) is over 500 nM; on Carboxypeptidase A (12 concentrations), 10 to 50 µM; at ACE (Sigma, A2580) (12 concentrations), over 50 µM; at ACE-2 [2] (setting [5]), over 500 nM.

For the compound `CCCC(N[C@H](CCc1ccccc1)C(=O)O)C(=O)O` (stereo in doubt) [BA, 2-(1-Carboxy-3-phenyl-propylamino)-pentanoicacid], the Ki is over 500 nM on ACE-2 [1] (12 concentrations); over 50 µM at Carboxypeptidase A (12 concentrations); over 50 µM at ACE (Sigma, A2580) (12 concentrations); over 500 nM on ACE-2 [2] (setting [5]).

Turning to `CCC(C)C(N[C@H](Cc1c[nH]cn1)C(=O)O)C(=O)O` (stereo in doubt) [BE, 2-[1-Carboxy-2-(1H-imidazol-4-yl)-ethylamino]-3-methyl-pentanoic acid], the Ki at ACE-2 [1] (12 concentrations) is over 500 nM; on Carboxypeptidase A (12 concentrations), over 50 µM; at ACE (Sigma, A2580) (12 concentrations), 10 to 50 µM; at ACE-2 [2] (setting [5]), over 500 nM.

In the case of `CC(C)CC(N[C@H](Cc1ccccn1)C(=O)O)C(=O)O` (stereo in doubt) [BZ, 2-(1-Carboxy-2-pyridin-2-yl-ethylamino)-4-methyl-pentanoic acid], the Ki on ACE-2 [1] (12 concentrations) was over 500 nM; at Carboxypeptidase A (12 concentrations) it was over 50 µM; at ACE (Sigma, A2580) (12 concentrations), over 50 µM; on ACE-2 [2] (setting [5]) it was over 500 nM.

As to `CC(C)CC(N[C@H](Cc1cccs1)C(=O)O)C(=O)O` (stereo in doubt) [CP, 2-(1-Carboxy-2-thiophen-2-yl-ethylamino)-4-methyl-pentanoic acid], the Ki at ACE-2 [1] (12 concentrations) was over 500 nM; at Carboxypeptidase A (12 concentrations), 10 to 50 µM; at ACE (Sigma, A2580) (12 concentrations), over 50 µM; at ACE-2 [2] (setting [5]), over 500 nM.

Take `CC(C)CC(N[C@H](Cc1cn(Cc2ccccc2)cn1)C(=O)O)C(=O)O` (stereo in doubt) [CW, 2-[2-(1-Benzyl-1H-imidazol-4-yl)-1-carboxy-ethylamino]-4-methyl-pentanoic acid]: the Ki is over 500 nM on ACE-2 [1] (12 concentrations); over 50 µM on Carboxypeptidase A (12 concentrations); over 50 µM on ACE (Sigma, A2580) (12 concentrations); over 500 nM on ACE-2 [2] (setting [5]).

Consider `CC(C)CC(N[C@@H](Cc1cn(-c2ccc([N+](=O)[O-])cc2[N+](=O)[O-])cn1)C(=O)O)C(=O)O` (stereo in doubt) [EG, 2-[1-Carboxy-2-[1-(2,4-dinitro-phenyl)-1H-imidazol-4-yl]-ethylamino)4-methyl-pentanoic acid], for which the Ki at ACE-2 [1] (12 concentrations) is over 500 nM; at Carboxypeptidase A (12 concentrations) it was over 50 µM; on ACE (Sigma, A2580) (12 concentrations) it was 10 to 50 µM; at ACE-2 [2] (setting [5]), over 500 nM.

For `CC(C)CC(N[C@H](CN(C)Cc1ccccc1)C(=O)O)C(=O)O` (stereo in doubt) [FU, 2-[2-(Benzyl-methyl-amino)-1-carboxy-ethylamino]-4-methyl-pentanoic acid], the Ki was over 500 nM at ACE-2 [1] (12 concentrations); over 50 µM at Carboxypeptidase A (12 concentrations); over 50 µM at ACE (Sigma, A2580) (12 concentrations); over 500 nM on ACE-2 [2] (setting [5]).

In the case of `CC(C)C[C@H](NC(CN(C)c1ccccc1)C(=O)O)C(=O)O` (some centres unmarked) [AP, 2-[1-Carboxy-2-(methyl-phenyl-amino)-ethylamino]-4-methyl-pentanoic acid], the Ki on ACE-2 [1] (12 concentrations) is 100 to 500 nM; on Carboxypeptidase A (12 concentrations), 10 to 50 µM; on ACE (Sigma, A2580) (12 concentrations), over 50 µM; on ACE-2 [2] (setting [5]), over 500 nM.

`CC(C)[C@H](NC(CCc1ccccc1)C(=O)O)C(=O)O` (some centres unmarked) [AS, 2-(1-Carboxy-3-phenyl-propylamino)-3-methyl-butync acid]: the Ki on ACE-2 [1] (12 concentrations) was over 500 nM; on Carboxypeptidase A (12 concentrations), over 50 µM; at ACE (Sigma, A2580) (12 concentrations), over 50 µM; at ACE-2 [2] (setting [5]), over 500 nM.

`O=C(O)C[C@H](NC(CCc1ccccc1)C(=O)O)C(=O)O` (some centres unmarked) [AZ, 2-(1-Carboxy-3-phenyl-propylamino)-succinicacid]: the Ki at ACE-2 [1] (12 concentrations) is over 500 nM; on Carboxypeptidase A (12 concentrations) it was over 50 µM; on ACE (Sigma, A2580) (12 concentrations) it was over 50 µM; at ACE-2 [2] (setting [5]), over 500 nM.
